What was measured:
Interleukin IL-1 R1 = biological target: T1, Interleukin IL-1 R1 (Homo sapiens, UniProt P14778); assay: off-target screen panel; format: binding; conditions: Human recombinant, [^125I]Interleukin-1β
T1 construct: purchased Eurofins Panlabs Discovery Services (Taiwan)

[1] = biological target: T2, Epidermal Growth Factor (EGF) (Homo sapiens, UniProt P00533); assay: off-target screen panel; format: binding; conditions: Human A431 cells, [^125I]EGF
T2 construct: purchased Eurofins Panlabs Discovery Services (Taiwan)

Adrenergic β1 = biological target: T3, Adrenergic β1 (Homo sapiens, UniProt P08588); assay: off-target screen panel; format: binding; conditions: Human recombinant, [^125I]Cyanopindolol
T3 construct: purchased Eurofins Panlabs Discovery Services (Taiwan)

PDE7 [2] = assay: PET imaging in monkeys with [^11C]MTP38; format: in vivo, rhesus monkeys; conditions: after unlabeled MTP38 iv bolus 0.075 mg/kg + infusion 0.3 mg/kg/h
Method: Each monkey underwent multiple PET scans with intervals longer than 2 weeks. The monkeys were given an intramuscular injection of 0.04 mg/kg of atropine sulfate at 1.5 h before radioligand injection. They were subsequently anesthetized with an intramuscular injection of ketamine (5 mg/kg) and xylazine (0.5 mg/kg), intubated, and kept anesthetized with 1–2% isoflurane. Heart rate, electrocardiogram, body temperature, blood oxygen saturation level, and end-tidal CO2 were monitored during the PET scan. The monkeys were placed on a bed in a supine position, and the head was fixed at the center of the field of view of a microPET scanner Focus220. A transmission scan was performed for about 20 min using a ^68Ge-^68Ga point source. A 90-min list-mode data acquisition was started simultaneously with intravenous administration of [^11C]MTP38 via a saphenous vein cannula. All list-mode data were sorted into 3D sinograms, which were then Fourier-rebinned into 2D sinograms (frames: 10 s × 6, 30 s × 8, 1 min × 5, 2 min × 10, and 5 min × 12). The images were corrected for attenuation and reconstructed with a filtered back-projection algorithm using a Hanning filter with a cut-off at the Nyquist frequency (0.5 mm^−1).
Along with baseline scans, we carried out blocking PET experiments according to the following pretreatment protocols: (1) unlabeled MTP38 was administered as an intravenous bolus (0.075 mg/kg) at 1 h before radioligand injection followed by continuous infusion at a rate of 0.3 mg/kg/h until the end of the PET scan, and (2) MTP-X (0.3–30 mg/kg) was administered orally at 2 or 6 h before radioligand injection.
PET scans for monkeys at baseline and following pretreatment with unlabeled MTP38, and 3, 10, 30 mg/kg of MTP-X were performed along with arterial blood sampling to obtain a metabolite-corrected input function. In total, 22 arterial blood samples were collected manually with heparinized syringes via a saphenous artery contralateral to the radioligand injection. Sampling was performed at 10, 20, 30, 40, 50, 60, 75, 90, 105, 120, 150, 180, and 210 s and at 4, 5, 10, 20, 30, 45, 60, 75, and 90 min after radioligand injection. Blood samples were then placed on ice and divided into two aliquots, one of which was centrifuged with a refrigerated centrifuge (15,000×g, 3 min, 4 °C) to obtain plasma.
PET images were co-registered onto the individual MR images. ROIs were placed on the prefrontal and medial frontal cortices, hippocampus, amygdala, striatum (caudate + putamen), nucleus accumbens, thalamus, cerebellum (gray matter), and brainstem. TACs in the baseline and blockade experiments were generated for each ROI.
Regional TACs were examined by several analytical methods to calculate the regional total distribution volume (VT), which represents the sum of non-specific and specific radioligand binding. Compartment model (1- or 2-tissue) and Logan’s graphical analyses were employed for describing the radioligand kinetics in the brain. The fractional blood volume was fixed at 0.05. For compartment model analyses, an optimal model was chosen on the basis of Akaike’s information criterion (AIC) and model selection criterion (MSC). For graphical analyses, an equilibration time t* was determined so that by the maximum error from the regression within the linear segment was considered to be 10% for each TAC. Time stability of VT was investigated by truncating the data duration stepwise from 90 min to 30 min. The VT values with or without pretreatment with a blocker were then compared. We also validated the use of the cerebellum as a reference tissue by this comparison, in addition to the autoradiographic findings, in monkey brain slices. The non-displaceable binding potential (BPND) was calculated by the original multilinear reference tissue model (MRTMO). t* was determined in the same manner as Logan’s graphical analysis. […]

Estrogen ERα = biological target: T4, Estrogen ERα (Homo sapiens, UniProt P03372); assay: off-target screen panel; format: binding; conditions: Human recombinant, [^3H]Estradiol
T4 construct: purchased Eurofins Panlabs Discovery Services (Taiwan)

[3] = biological target: T5, Transporter, Dopamine (DAT) (Homo sapiens, UniProt Q01959); assay: off-target screen panel; format: binding; conditions: Human recombinant, [^125I]RTI-55
T5 construct: purchased Eurofins Panlabs Discovery Services (Taiwan)

Muscarinic M2 = biological target: T6, Muscarinic M2 (Homo sapiens, UniProt P08172); assay: off-target screen panel; format: binding; conditions: Human recombinant, [^3H]N-Methylscopolamine
T6 construct: purchased Eurofins Panlabs Discovery Services (Taiwan)

Adenosine A1 = biological target: T7, Adenosine A1 (Homo sapiens, UniProt P30542); assay: off-target screen panel; format: binding; conditions: Human recombinant, [^3H]DPCPX
T7 construct: purchased Eurofins Panlabs Discovery Services (Taiwan)

Opiate μ (OP3, MOP) = biological target: T8, Opiate μ (OP3, MOP) (Homo sapiens, UniProt P35372); assay: off-target screen panel; format: binding; conditions: Human recombinant, [^3H]Diprenorphine
T8 construct: purchased Eurofins Panlabs Discovery Services (Taiwan)

PDE7 [4] = assay: PET imaging in rats with [^11C]MTP38; format: in vivo, Wistar rats; conditions: unlabeled MTP38 0.5 mg/kg intravenously 2 min before radioligand
Method: Each rat was scanned multiple times with a shortest interval of 1 month. Rats were anesthetized with isoflurane (3% for induction and 2% for maintenance) throughout the experiment. The tail vein was cannulated for radioligand injection. Body temperature was maintained at around 37 °C using a heating pad. The head of the rat was fixed at the center of the field of view of an animal PET scanner (microPET Focus220, Siemens Medical Solutions, Malvern, USA). A 90-min list-mode data acquisition was started simultaneously with intravenous administration of [^11C]MTP38. The list-mode data were sorted into 3D sinograms, which were then Fourier-rebinned into 2D sinograms (frames: 10 s × 6, 30 s × 8, 1 min × 5, 2 min × 10, and 5 min × 12). The sinograms were reconstructed with a filtered back-projection algorithm using a Hanning filter with a cut-off at the Nyquist frequency (0.5 mm^−1).
Along with baseline scans, we conducted blockade PET experiments according to the following pretreatment protocols: (1) unlabeled MTP38 (0.5 mg/kg) was administered intravenously at 2 min before radioligand injection, and (2) MTP-X (100 mg/kg) was administered orally at 1 h before radioligand injection.
PET images were co-registered manually onto the magnetic resonance (MR) template image. Details of co-registration were described elsewhere. Regions of interest (ROIs) were placed on the striatum as a target region and on the cerebellum (gray matter) as a reference region according to the expression of PDE7B mRNA in the rat brain [6], and time-activity curves (TACs) were generated for each ROI. Radioactivity in the brain was normalized with injected radioactivity and body weight, and expressed as standardized uptake value (SUV). Then the SUV ratio between the striatum and cerebellum was obtained to estimate the radioligand binding in the target region in baseline and blockade experiments.

T2 sequence (P00533 25-1210): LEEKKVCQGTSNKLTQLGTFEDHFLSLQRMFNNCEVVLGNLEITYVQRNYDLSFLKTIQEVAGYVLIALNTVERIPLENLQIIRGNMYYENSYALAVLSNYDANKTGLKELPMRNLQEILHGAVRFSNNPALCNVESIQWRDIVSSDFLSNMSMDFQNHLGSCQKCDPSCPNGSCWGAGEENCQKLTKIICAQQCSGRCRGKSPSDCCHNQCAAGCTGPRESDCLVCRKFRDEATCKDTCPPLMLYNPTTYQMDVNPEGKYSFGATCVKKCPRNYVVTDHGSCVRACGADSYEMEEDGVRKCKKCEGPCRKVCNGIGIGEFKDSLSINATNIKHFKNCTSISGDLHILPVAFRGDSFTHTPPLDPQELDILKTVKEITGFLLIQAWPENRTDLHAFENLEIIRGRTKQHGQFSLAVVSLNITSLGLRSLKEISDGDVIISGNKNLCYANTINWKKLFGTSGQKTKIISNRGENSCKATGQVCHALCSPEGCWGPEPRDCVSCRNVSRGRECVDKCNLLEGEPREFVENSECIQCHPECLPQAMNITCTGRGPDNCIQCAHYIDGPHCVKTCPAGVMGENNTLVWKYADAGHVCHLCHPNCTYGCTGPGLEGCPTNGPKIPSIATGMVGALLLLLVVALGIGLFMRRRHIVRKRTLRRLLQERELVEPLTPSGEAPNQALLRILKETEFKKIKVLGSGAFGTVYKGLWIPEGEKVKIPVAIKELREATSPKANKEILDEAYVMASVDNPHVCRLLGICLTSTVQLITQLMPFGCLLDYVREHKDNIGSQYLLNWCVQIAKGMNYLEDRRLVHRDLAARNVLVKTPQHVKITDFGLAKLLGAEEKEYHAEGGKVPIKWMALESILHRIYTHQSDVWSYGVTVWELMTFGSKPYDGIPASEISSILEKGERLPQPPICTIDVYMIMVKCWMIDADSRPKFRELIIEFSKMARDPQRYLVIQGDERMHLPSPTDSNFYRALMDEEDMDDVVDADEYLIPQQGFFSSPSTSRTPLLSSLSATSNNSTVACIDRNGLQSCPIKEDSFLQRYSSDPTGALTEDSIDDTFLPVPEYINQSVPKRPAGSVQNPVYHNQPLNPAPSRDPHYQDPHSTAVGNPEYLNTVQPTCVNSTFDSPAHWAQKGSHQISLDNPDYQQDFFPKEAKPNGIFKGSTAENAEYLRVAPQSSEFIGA
T6 sequence (P08172 whole entry): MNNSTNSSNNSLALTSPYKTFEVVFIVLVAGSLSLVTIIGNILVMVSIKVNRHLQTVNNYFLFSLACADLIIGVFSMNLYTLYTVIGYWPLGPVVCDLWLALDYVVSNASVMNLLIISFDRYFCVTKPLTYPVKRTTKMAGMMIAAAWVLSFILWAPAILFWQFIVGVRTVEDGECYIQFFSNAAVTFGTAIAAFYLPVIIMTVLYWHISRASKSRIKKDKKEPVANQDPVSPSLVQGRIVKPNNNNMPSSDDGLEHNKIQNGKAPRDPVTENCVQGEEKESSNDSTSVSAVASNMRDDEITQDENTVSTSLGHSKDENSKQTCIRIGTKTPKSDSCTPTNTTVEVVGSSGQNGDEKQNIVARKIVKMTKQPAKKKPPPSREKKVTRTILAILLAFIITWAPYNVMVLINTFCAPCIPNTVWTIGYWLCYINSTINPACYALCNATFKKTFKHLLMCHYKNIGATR
T4 sequence (P03372 whole entry): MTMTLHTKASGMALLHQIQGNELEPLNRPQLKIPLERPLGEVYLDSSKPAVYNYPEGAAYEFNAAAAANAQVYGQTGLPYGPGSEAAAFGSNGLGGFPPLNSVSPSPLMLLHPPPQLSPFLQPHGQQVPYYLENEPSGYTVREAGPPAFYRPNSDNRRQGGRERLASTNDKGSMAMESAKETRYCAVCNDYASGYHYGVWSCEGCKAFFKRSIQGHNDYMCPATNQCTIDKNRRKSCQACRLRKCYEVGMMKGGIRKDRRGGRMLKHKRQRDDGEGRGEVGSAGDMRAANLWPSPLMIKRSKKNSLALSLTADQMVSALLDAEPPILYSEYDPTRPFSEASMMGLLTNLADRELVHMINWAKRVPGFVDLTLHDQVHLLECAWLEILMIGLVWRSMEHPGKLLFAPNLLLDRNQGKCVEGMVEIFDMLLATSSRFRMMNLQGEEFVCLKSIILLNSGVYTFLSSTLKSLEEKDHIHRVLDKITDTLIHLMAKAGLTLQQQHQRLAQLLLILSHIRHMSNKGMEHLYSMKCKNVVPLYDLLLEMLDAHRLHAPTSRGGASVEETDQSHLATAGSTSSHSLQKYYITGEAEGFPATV
T8 sequence (P35372 whole entry): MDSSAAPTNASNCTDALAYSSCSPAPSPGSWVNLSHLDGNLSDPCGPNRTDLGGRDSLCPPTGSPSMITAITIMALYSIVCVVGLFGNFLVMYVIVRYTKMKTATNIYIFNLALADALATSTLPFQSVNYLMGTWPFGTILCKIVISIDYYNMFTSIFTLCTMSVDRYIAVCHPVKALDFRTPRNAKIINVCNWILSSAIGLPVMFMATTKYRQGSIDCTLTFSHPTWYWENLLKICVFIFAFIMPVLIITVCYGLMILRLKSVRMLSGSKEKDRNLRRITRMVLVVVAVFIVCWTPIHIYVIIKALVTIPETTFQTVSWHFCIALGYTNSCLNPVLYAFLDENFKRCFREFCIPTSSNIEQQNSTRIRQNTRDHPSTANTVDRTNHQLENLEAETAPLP
T5 sequence (Q01959 whole entry): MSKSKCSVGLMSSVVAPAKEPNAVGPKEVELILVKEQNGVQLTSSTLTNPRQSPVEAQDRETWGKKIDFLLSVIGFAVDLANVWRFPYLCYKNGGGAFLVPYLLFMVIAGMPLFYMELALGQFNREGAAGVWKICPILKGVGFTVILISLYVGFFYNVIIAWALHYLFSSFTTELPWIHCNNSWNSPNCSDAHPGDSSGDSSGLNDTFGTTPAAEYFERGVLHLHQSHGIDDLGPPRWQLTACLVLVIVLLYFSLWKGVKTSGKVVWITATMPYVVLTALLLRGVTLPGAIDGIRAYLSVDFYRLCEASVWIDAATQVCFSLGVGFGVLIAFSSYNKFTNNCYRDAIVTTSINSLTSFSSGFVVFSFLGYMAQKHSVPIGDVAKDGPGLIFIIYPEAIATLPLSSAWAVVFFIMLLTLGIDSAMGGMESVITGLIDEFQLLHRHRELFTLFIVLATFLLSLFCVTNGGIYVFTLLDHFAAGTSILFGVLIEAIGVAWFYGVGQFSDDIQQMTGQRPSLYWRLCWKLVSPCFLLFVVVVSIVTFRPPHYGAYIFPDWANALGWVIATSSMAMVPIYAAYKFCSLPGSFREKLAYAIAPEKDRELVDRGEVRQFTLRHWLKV
T1 sequence (P14778 18-569): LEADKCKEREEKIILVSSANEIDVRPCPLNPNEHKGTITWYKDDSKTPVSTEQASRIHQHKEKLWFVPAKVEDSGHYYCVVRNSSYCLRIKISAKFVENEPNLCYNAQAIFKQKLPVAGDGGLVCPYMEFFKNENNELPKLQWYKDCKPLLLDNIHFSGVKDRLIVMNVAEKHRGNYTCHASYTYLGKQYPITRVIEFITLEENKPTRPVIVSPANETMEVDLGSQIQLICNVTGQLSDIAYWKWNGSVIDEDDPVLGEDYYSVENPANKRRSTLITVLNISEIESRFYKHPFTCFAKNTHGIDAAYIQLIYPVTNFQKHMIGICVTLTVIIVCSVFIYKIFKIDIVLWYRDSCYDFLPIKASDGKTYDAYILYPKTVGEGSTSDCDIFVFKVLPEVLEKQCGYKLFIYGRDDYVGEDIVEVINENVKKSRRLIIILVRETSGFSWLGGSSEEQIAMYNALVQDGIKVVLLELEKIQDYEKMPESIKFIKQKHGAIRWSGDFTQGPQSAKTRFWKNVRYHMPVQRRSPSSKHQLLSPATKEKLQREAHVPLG
T7 sequence (P30542 whole entry): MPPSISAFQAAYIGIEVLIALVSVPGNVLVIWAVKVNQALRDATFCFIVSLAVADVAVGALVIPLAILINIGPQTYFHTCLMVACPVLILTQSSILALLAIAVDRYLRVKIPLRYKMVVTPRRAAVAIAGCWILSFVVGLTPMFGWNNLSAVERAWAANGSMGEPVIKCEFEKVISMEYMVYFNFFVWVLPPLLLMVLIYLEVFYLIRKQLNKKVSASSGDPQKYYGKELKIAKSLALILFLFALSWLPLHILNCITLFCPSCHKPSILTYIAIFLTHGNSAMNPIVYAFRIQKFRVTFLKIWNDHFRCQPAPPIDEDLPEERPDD
T3 sequence (P08588 whole entry): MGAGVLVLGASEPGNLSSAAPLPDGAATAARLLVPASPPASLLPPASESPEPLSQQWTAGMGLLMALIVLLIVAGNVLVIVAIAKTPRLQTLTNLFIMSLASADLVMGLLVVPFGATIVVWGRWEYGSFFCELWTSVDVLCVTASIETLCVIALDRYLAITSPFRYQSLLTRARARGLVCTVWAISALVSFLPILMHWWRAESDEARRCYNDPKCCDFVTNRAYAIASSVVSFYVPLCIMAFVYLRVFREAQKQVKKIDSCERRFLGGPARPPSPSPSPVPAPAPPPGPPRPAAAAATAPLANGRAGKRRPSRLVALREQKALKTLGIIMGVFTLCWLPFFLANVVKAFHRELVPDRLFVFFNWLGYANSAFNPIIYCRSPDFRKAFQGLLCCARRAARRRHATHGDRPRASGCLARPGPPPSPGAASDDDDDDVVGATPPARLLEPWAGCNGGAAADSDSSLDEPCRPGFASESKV

Question: With `C[C@@H]1CC[C@H](C)N(c2nnc3c(N)ncc(C#N)n23)C1` (relative stereo) [MTP38, 8-amino-3-(2S*,5R*-dimethyl-1-piperidyl)-[1,2,4]triazolo[4,3-a]pyrazine-5-carbonitrile] as the compound, how does the inhibition at 1 µM (Interleukin IL-1 R1) read?
Answer: -5%

Question: What about the inhibition at 1 µM [1] of the same compound?
Answer: 1%

Question: What about the inhibition at 1 µM (Adrenergic β1) of the same compound?
Answer: -2%

Question: What about the “Striatal BPND of [^11C]MTP38” value (PDE7 [2]; monkey #1) of the same compound?
Answer: 0.157

Question: And the “Striatal BPND of [^11C]MTP38” value (PDE7 [2]; monkey #2)?
Answer: 0.017

Question: What about the inhibition at 1 µM (Estrogen ERα) of the same compound?
Answer: -1%

Question: And the inhibition at 1 µM [3]?
Answer: 22%

Question: What about the inhibition at 1 µM (Muscarinic M2) of the same compound?
Answer: -9%

Question: What about the inhibition at 1 µM (Adenosine A1) of the same compound?
Answer: -12%

Question: And the inhibition at 1 µM (Opiate μ (OP3, MOP))?
Answer: 4%

Question: What about the “striatum-to-cerebellum ratio of SUV of [^11C]MTP38 after pretreatment” value (PDE7 [4]) of the same compound?
Answer: around 1.1

Source: paper PMC8426238, “Synthesis and preclinical evaluation of [^11C]MTP38 as a novel PET ligand for phosphodiesterase 7 in the brain” (European Journal of Nuclear Medicine and Molecular Imaging, 2021)
